Experimental data as given in ChEMBL document CHEMBL1147921, “SAR studies on thiazolo[4,5-d]pyrimidine based CXCR2 antagonists involving a novel tandem displacement reaction” (Bioorg Med Chem Lett, 2007).
In brackets after ≈: the same amount, converted by molar mass.

Experiments:
[1] = molecular target: T1, C-X-C chemokine receptor type 2 (Homo sapiens, UniProt P25025); experiment: Displacement of [125I]IL8 from human CXCR2 expressed in HEK 293 by SPA; format: cell-based, HEK293
T1 sequence (P25025 whole entry): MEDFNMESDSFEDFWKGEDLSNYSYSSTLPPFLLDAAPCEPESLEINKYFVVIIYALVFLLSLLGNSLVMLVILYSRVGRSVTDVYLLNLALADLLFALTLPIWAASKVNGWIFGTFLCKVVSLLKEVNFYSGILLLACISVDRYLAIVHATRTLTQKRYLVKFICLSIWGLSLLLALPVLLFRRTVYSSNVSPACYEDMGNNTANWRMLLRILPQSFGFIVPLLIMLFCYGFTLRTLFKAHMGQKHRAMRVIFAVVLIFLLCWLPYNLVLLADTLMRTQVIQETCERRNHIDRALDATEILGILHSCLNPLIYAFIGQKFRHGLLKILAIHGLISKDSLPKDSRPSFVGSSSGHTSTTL

[2] = Permeability across human Caco-2 cell membrane; format: ADME, cell-based; conditions: read-out: permeability
[3] = Protein binding in human plasma; format: ADME, cell-free; conditions: read-out: PPB (converted)
[4] = molecular target: T1, C-X-C chemokine receptor type 2; experiment: Antagonistic activity against human CXCR2 in neutrophils assessed as blockade of GROalpha stimulated calcium mobilisation by FLIPR; format: functional
[5] = Solubility at pH 7.4; format: physicochemical; conditions: buffer
[6] = Volume of distribution at steady state in iv dosed rat; format: ADME, organism-based; conditions: in vivo, read-out: Vss
[7] = Permeability from basolateral to apical side of the human Caco-2 cell membrane; format: ADME, cell-based; conditions: read-out: permeability
[8] = Bioavailability in po dosed rat; format: ADME, organism-based; conditions: in vivo
[9] = Permeability from apical to basolateral side of the human Caco-2 cell membrane; format: ADME, cell-based; conditions: read-out: permeability
[10] = Half life in iv dosed rat; format: ADME, organism-based; conditions: in vivo

## C[C@H](CO)Nc1nc(SCc2ccccc2F)nc2nc(N)sc12
[1]
  IC50: 12.6 nM

## C[C@H](CO)Nc1nc(SCc2cccc(F)c2)nc2nc(N)sc12
[1]
  IC50: 15.8 nM

## C[C@H](CO)Nc1nc(SCc2ccccc2Cl)nc2nc(N)sc12
[1]
  IC50: 31.6 nM

## C[C@H](CO)Nc1nc(SCc2cccc(Cl)c2Cl)nc2nc(N)sc12
[1]
  IC50: 15.8 nM

## CC(C)(CO)Nc1nc(SCc2ccco2)nc2nc(N)sc12
[1]
  IC50: 100 nM

## C[C@H](CO)Nc1nc(SCc2ccco2)nc2nc(N)sc12
[1]
  IC50: 31.6 nM

## Cc1nc(CSc2nc(NC(C)(C)CO)c3sc(N)nc3n2)cs1
[1]
  IC50: 1000 nM

## Nc1nc2nc(SCc3cccc(F)c3F)nc(N3CCCC3CO)c2s1 (configuration not stated)
[1]
  IC50: > 1000 nM

## CNc1nc2nc(SCc3cccc(F)c3F)nc(N[C@H](C)CO)c2s1
[1]
  IC50: 7.94 nM

## CCN(CC)c1nc2nc(SCc3cccc(F)c3F)nc(NC(CO)CO)c2s1
[1]
  IC50: 1580 nM

## Nc1nc2nc(SCc3cccc(F)c3F)nc(NC(CO)CO)c2s1
[1]
  IC50: 31.6 nM

## CC[C@H](CO)Nc1nc(SCc2cccc(F)c2F)nc2nc(N)sc12
[1]
  IC50: 25.1 nM

## CC(C)(CO)Nc1nc(SCc2cccc(F)c2F)nc2nc(N)sc12
[1]
  IC50: 25.1 nM
[2]
  Papp: 3.6 ×10⁻⁶ cm/s
[3]
  fraction unbound: 0.016
[4]
  IC50: 15.8 nM

## C[C@@H](O)[C@@H](CO)Nc1nc(SCc2cccc(F)c2F)nc2nc(N)sc12
[1]
  IC50: 15.8 nM

## CC(CO)(CO)Nc1nc(SCc2cccc(F)c2F)nc2nc(N)sc12
[1]
  IC50: 79.4 nM

## Cc1nc(CSc2nc(N[C@H](C)CO)c3sc(N)nc3n2)cs1
[1]
  IC50: 126 nM

## C[C@H](CO)Nc1nc(SCc2cccc(Cl)c2)nc2nc(N)sc12
[1]
  IC50: 12.6 nM

## CC[C@H](CO)Nc1nc(SCc2cccc(F)c2F)nc2nc(NC(C)C)sc12
[1]
  IC50: 100 nM

## CCN(CC)c1nc2nc(SCc3cccc(F)c3F)nc(N[C@H](C)CO)c2s1
[1]
  IC50: 398 nM

## C[C@H](CO)Nc1nc(SCc2cccc(F)c2F)nc2nc(NC3CC3)sc12
[1]
  IC50: 20 nM

## C[C@H](CO)Nc1nc(SCc2cccc(F)c2F)nc2nc(N)sc12
[5]
  solubility: 1.5 µg/mL (≈ 3.91 µM)
[6]
  Vd: 1.03 L/kg
[7]
  Papp B→A: 13.7 ×10⁻⁶ cm/s
[8]
  bioavailability: 9%
[9]
  Papp A→B: 2.47 ×10⁻⁶ cm/s
[10]
  half-life: 1.2 h

## C[C@H](CO)Nc1nc(SCc2cccc(Cl)c2F)nc2nc(N)sc12
[1]
  IC50: 3.98 nM

## OCC(CO)Nc1nc(SCc2cccc(F)c2F)nc2nc(NC3CC3)sc12
[1]
  IC50: 100 nM

## CC(C)Nc1nc2nc(SCc3cccc(F)c3F)nc(N[C@H](C)CO)c2s1
[1]
  IC50: 31.6 nM
